PubChem BioAssay (NCI)
Where “and” joins values, the source holds several entries; their conditions need not be identical. Equal entries are not always repeated.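 Growth conditions: 96-well plates. Treatment: test compound, 48 hours, 5 concentrations. Analysis: linear interpolation between bracketing concentrations; unreached endpoints set to highest concentration. Here, GI50 denotes the concentration required for 50% inhibition of growth. TGI: concentration producing complete growth inhibition.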

Assays:
Test in all cases: growth of human tumour cells (NCI), 48 h
SK-OV-3 ovarian = test system: SK-OV-3 ovarian
A549 NSCLC = test system: A549 NSCLC
HOP-62 NSCLC = test system: HOP-62 NSCLC
SF-295 CNS = test system: SF-295 CNS
OVCAR-8 ovarian = test system: OVCAR-8 ovarian
EKVX NSCLC = test system: EKVX NSCLC
TK-10 renal = test system: TK-10 renal
SN12C renal = test system: SN12C renal
SK-MEL-5 melanoma = test system: SK-MEL-5 melanoma
SNB-19 CNS = test system: SNB-19 CNS

Row | SMILES | TGI (SK-OV-3 ovarian) [µM] | TGI (A549 NSCLC) [µM] | TGI (HOP-62 NSCLC) [µM] | TGI (SF-295 CNS) [µM] | TGI (OVCAR-8 ovarian) [µM] | TGI (EKVX NSCLC) [µM] | TGI (TK-10 renal) [µM] | TGI (SN12C renal) [µM] | TGI (SK-MEL-5 melanoma) [µM] | TGI (SNB-19 CNS) [µM] | GI50 (SK-OV-3 ovarian) [µM] | GI50 (A549 NSCLC) [µM] | GI50 (SF-295 CNS) [µM] | GI50 (OVCAR-8 ovarian) [µM] | GI50 (SNB-19 CNS) [µM] | GI50 (EKVX NSCLC) [µM] | GI50 (TK-10 renal) | GI50 (SK-MEL-5 melanoma) [µM] | GI50 (SN12C renal) [µM] | GI50 (HOP-62 NSCLC) [µM]
1 | CN(C)CC1CCCC/C1=N/OC(=O)c1ccc(Cl)cc1 (stereo not drawn) | > 100 | > 100 | > 100 | > 100 | > 100 | > 100 | > 100 | > 100 |  |  |  |  |  |  |  |  |  |  |  | 
2 | Cc1cc(N(CCC#N)CCC#N)ccc1N=Nc1ccc(C(=O)O)cc1 | > 100 | > 100 | > 100 | > 100 | > 100 | > 100 | > 100 | > 100 | > 100 |  |  |  |  |  |  |  |  |  |  | 
3 | O=c1ccn([C@H]2CSC[C@@H](CO)C2)c(=O)[nH]1 | > 100 | > 100 | > 100 |  | > 100 | > 100 | > 100 | > 100 | > 100 | > 100 |  |  |  |  |  |  |  |  |  | 
4 | Nc1c(C(=O)Nc2ccncc2)sc2nc3c(cc12)CCCCCCCC3 | 1.61 | 2 |  | 1.69 | 50 | 1.63 | 1.98 | 1.74 | 1.52 | 1.76 | 0.846 | 1.01 | 0.907 | 1.54 | 0.96 | 0.851 | 1.17 µM | 0.831 | 0.905 | 
5 | CN(C)CC[PH+](c1ccccc1)c1ccccc1.CN(C)CC[PH+](c1ccccc1)c1ccccc1.[Cl-].[Pd+2] | > 100 | > 100 |  | > 100 | > 100 | > 100 | > 100 | > 100 | > 100 | > 100 | > 100 | > 100 | > 100 | > 100 | > 100 | > 100 | > 100 µM | > 100 | > 100 | 
6 | O=C1/C(=C/c2ccc(Cl)cc2)CCC1CCN1CCOCC1 (stereo not drawn) |  | > 100 | > 100 | > 100 | > 100 | > 100 | > 100 | > 100 | > 100 | > 100 |  |  |  |  |  |  |  |  |  | 
7 | COc1cccc2c1C(=O)c1c(O)c3c(c(O)c1C2=O)C[C@](O)(C(=O)CO)C[C@H]3O[C@@H]1C[C@@H](NC(=O)CCCCCN(C)C2(c3ccc(F)cc3)CC3CCC2C3)[C@H](O)[C@@H](C)O1 (stereo partly drawn) | 14.7 |  | 10 | 13.3 | 3.94 | 17.7 | 1.28 | 14.5 | 15.6 | 14.8 | 7.46 |  | 5.79 | 1.18 | 6.48 | 7.85 | 0.611 µM | 7.65 | 5.75 | 2.03
8 | CC(C)Oc1ccc2cc(-c3nn(CC4CCNCC4)c4ncnc(N)c34)ccc2c1 | 27.9 | 28.3 | 31.4 | 14.2 |  | 26.9 | 25.7 | 24.8 | 23.8 | 26 | 13.8 | 14.5 | 3.67 |  | 12.7 | 13.6 | 12.8 µM | 11.6 | 11.8 | 15.6
9 | COc1ccc(Nc2nnc(-c3cc(O)ccc3O)s2)cc1 |  | > 50 |  | > 50 | > 50 | > 50 | > 50 | 19.2 | 27.2 | > 50 |  | > 50 | > 50 | 30.4 | > 50 | > 50 | 48.4 µM | 10.3 | 7.73 | 
10 | Cn1cc(C2=C(c3cn(CCCCO)c4ccccc34)C(=O)NC2=O)c2ccccc21 | > 25 | > 25 | > 25 | > 25 | 24.8 |  | > 25 | > 25 | > 20.5 | > 25 | 8.23 | 7.97 | 5.9 | 8.61 | 14.7 |  | 10.1 µM | 6.26 | 7.17 | 9.95
11 | COc1ccc(C(=O)/C=C/c2cc(-c3cc(OC)c(OC)c(OC)c3)n[nH]2)cc1OC | 7.83 | 4.59 | 2.77 |  | 2.73 |  | 2.6 | 3.13 | 3.03 | 3.01 | 2.79 | 1.86 |  | 1.32 | 1.42 |  | 1.33 µM | 1.65 | 1.54 | 1.44
12 | COc1cc(NCc2ccc3nc(N)nc(N)c3c2C)cc(OC)c1OC (tested in a mixture with another compound) |  | 21.9 |  |  |  | 26.6 | 47.5 |  |  | 113 | 0.0189 | 0.000138 | 0.000372 |  |  |  | 23.2 µM and 4.8 µM |  | 0.000457 | 
13 | COc1ccc2[nH]cc(C3(c4c[nH]c5ccc(OC)cc45)C(=O)Nc4ccc(F)cc43)c2c1 | 13.5 |  | 13 | 4.85 | 9.67 | 8.07 |  | 12.1 | 4.77 | 14.6 | 3.59 |  | 1.79 | 2.75 | 3.28 | 2.35 |  | 1.98 | 2.97 | 3.09
14 | O=C(CCc1n[nH]c(=S)o1)Nc1ccccc1C(F)(F)F | > 100 |  | > 100 | > 100 | > 100 | > 100 | > 100 | > 100 | > 100 | > 100 |  |  |  |  |  |  |  |  |  | 
15 | CN(C)C(n1cc2c(c1)-c1ccc(Cl)cc1C(c1ccccc1F)=NC2)n1cc2c(c1)-c1ccc(Cl)cc1C(c1ccccc1F)=NC2 | > 100 | > 100 | > 100 | > 100 | > 100 | > 100 |  | > 100 | > 100 | > 100 |  |  |  |  |  |  |  |  |  | 
16 | O=C1/C(=C/c2ccc3c(c2)OCO3)SC2C=Nc3ccccc3N12 (stereo not drawn) |  | > 100 | > 100 | > 100 | > 100 | > 100 | > 100 | > 100 | > 100 | > 100 |  |  |  |  |  |  |  |  |  | 
17 | OCC1OC(c2nc(C3=NCCCN3)cs2)C(O)C1O (stereo not drawn) | > 100 | > 100 | > 100 | > 10 | > 100 | > 100 | > 100 | > 100 |  | > 100 |  |  |  |  |  |  |  |  |  | 
